# Source: ChEMBL document CHEMBL1121811, “Synthesis and biological evaluation of certain 2'-deoxy-beta-D-ribo- and -beta-D-arabinofuranosyl nucleosides of purine-6-carboxamide and 4,8-diaminopyrimido[5,4-d]pyrimidine” (1981)
# Tests used:
# Mus musculus [1] = assay: Compound was tested for the ability to suppress skin-graft rejection in mice treated daily from day of graft transfer until rejection at dose of 100 mg/kg (control = 12+/-0.21)
# Mus musculus [2] = assay: Effect of compound on induction of cellular immunity was studied at different dose of 50 mg/kg. (control = 12+/-0.21); type: functional
# Mus musculus [3] = assay: Compound was tested for the ability to suppress humoral immune response in mice treated for days -2,-1,and 0 at dose of 100 mg/kg (control = 9.5); type: functional
# Mus musculus [4] = assay: Compound was tested for the ability to suppress skin-graft rejection in mice treated daily from day of graft transfer until rejection at dose of 75 mg/kg (control = 12+/-0.21)
# Mus musculus [5] = assay: Compound was tested for the ability to suppress humoral immune response in mice treated for days 0,+1,and +2 at dose of 100 mg/kg (control = 10.0)
# Mus musculus [6] = assay: Compound was tested for the ability to suppress humoral immune response in mice treated for days 0,+1,and +2 at dose of 25 mg/kg (control = 7.0); type: functional
# Mus musculus [7] = assay: Compound was tested for the ability to suppress humoral immune response in mice treated for days -2,-1,and 0 at dose of 25 mg/kg (control = 9.5); type: functional
# Mus musculus [8] = assay: Effect of compound on induction of cellular immunity was studied at different dose of 15 mg/kg (control = 12+/-0.2); type: functional
# Mus musculus [9] = assay: Compound was tested for the ability to suppress humoral immune response in mice treated for days -2,-1,and 0 at dose of 50 mg/kg (control = 8.1); type: functional
# Mus musculus [10] = assay: Compound was tested for the ability to suppress humoral immune response in mice treated for days 0,+1,and +2 at dose of 100 mg/kg (control = 8.9); type: functional
# Mus musculus [11] = assay: Compound was tested for the ability to suppress humoral immune response in mice treated for days -2,-1,and 0 at dose of 100 mg/kg (control = 8.1); type: functional
# Mus musculus [12] = assay: Compound was tested for the ability to suppress humoral immune response in mice treated for days 0,+1,and +2 at dose of 25 mg/kg (control = 8.9)
# Mus musculus [13] = assay: Compound was tested for the ability to suppress humoral immune response in mice treated for days 0,+1,and +2 at dose of 50 mg/kg (control = 8.9); type: functional
# Mus musculus [14] = assay: Compound was tested for the ability to suppress humoral immune response in mice treated for days 0,+1,and +2 at dose of 50 mg/kg (control = 9.0); type: functional
# Mus musculus [15] = assay: Compound was tested for the ability to suppress humoral immune response in mice treated for days 0,+1,and +2 at dose of 180 mg/kg (control = 9.0); type: functional
# Mus musculus [16] = assay: Compound was tested for the ability to suppress humoral immune response in mice treated for days 0,+1,and +2 at dose of 100 mg/kg (control = 6.5); type: functional
# Mus musculus [17] = assay: Compound was tested for the ability to suppress humoral immune response in mice treated for days -2,-1,and 0 at dose of 50 mg/kg (control = 10.3); type: functional
# Mus musculus [18] = assay: Compound was tested for the ability to suppress humoral immune response in mice treated for days 0,+1,and +2 at dose of 180 mg/kg (control = 9.1); type: functional
# Mus musculus [19] = assay: Compound was tested for the ability to suppress humoral immune response in mice treated for days 0,+1,and +2 at dose of 50 mg/kg (control = 6.5); type: functional
# Mus musculus [20] = assay: Compound was tested for the ability to suppress humoral immune response in mice treated for days -2,-1,and 0 at dose of 100 mg/kg (control = 10.3); type: functional
# Mus musculus [21] = assay: Compound was tested for the ability to suppress humoral immune response in mice treated for days 0,+1,and +2 at dose of 100 mg/kg (control = 9.0); type: functional
compound,measurement,setting,value
Nc1ncnc2c(N[C@@H]3O[C@H](CO)[C@@H](O)[C@@H]3O)ncnc12,mean survival time,Mus musculus [1],16
same,mean survival time,Mus musculus [2],14
same,Mean hemagglutination titers,Mus musculus [3],8.7
same,mean survival time,Mus musculus [4],13
same,Mean hemagglutination titers,Mus musculus [5],11
Nc1ncnc2c(N[C@@H]3O[C@H](CO)[C@@H](O)[C@H]3O)ncnc12,Mean hemagglutination titers,Mus musculus [6],0
same,Mean hemagglutination titers,Mus musculus [7],8.5
same,mean survival time,Mus musculus [8],21
Nc1ccn([C@@H]2O[C@H](CO)[C@@H](O)[C@@H]2O)c(=O)n1 [CYTARABINE],Mean hemagglutination titers,Mus musculus [6],3.4
Sc1ncnc2nc[nH]c12 [MERCAPTOPURINE ANHYDROUS],Mean hemagglutination titers,Mus musculus [9],7.5
same,Mean hemagglutination titers,Mus musculus [10],4.1
same,Mean hemagglutination titers,Mus musculus [11],3.4
same,Mean hemagglutination titers,Mus musculus [12],7.5
same,Mean hemagglutination titers,Mus musculus [13],7.2
OC[C@H]1O[C@@H](n2cnc3c(S)ncnc32)[C@H](O)[C@@H]1O [THIOINOSINE],Mean hemagglutination titers,Mus musculus [9],8.5
same,Mean hemagglutination titers,Mus musculus [14],9.1
same,Mean hemagglutination titers,Mus musculus [15],6.4
same,Mean hemagglutination titers,Mus musculus [16],7.2
same,Mean hemagglutination titers,Mus musculus [17],8.3
same,Mean hemagglutination titers,Mus musculus [18],8.7
same,Mean hemagglutination titers,Mus musculus [19],7.2
same,Mean hemagglutination titers,Mus musculus [20],8.3
same,Mean hemagglutination titers,Mus musculus [11],8.4
same,Mean hemagglutination titers,Mus musculus [21],7.4
